# Laboratory results: US9359419B2, “Treatment of vascular complications of diabetes” (priority 2010, dated 2016)
# “Also recorded” adds a separate entry of the source.
# What was measured:
# fresh human whole blood = assay: Release of Interleukin-6 from fresh human whole blood (ELISA); format: cell-based; parameters: Concentration of IL-6: unit of the concentration uncertain; settings: for Concentration of IL-6: 24 hours, n = 5
# Description: It was the goal of this study to determine the pro-inflammatory signalling capacity of the AP301 peptide. Whole blood cultures were used and the secretion of interleukin-6 (IL-6), a very sensitive marker for pro-inflammatory stimulation, was quantified by ELISA.
# • Test system 25 ml of freshly taken heparinized blood from 5 healthy volunteers (HV) was used in the assays. […]
# Whole blood (WB) cultures were done by pipetting 1 ml of WB into wells of 24 well plates. In each experiment unstimulated and control-stimulated cultures were included.
# If possible the substances and stimulants to be investigated were always added in an identical volume to each well of a given experiment, not greater than 10% of the total volume contained in a well. Unstimulated controls received PBS. Volume adjustments and dilutions for different treatments were also done with PBS.
# The content of each well was mixed and the plates incubated at 37° C. and 5% CO2 for 24 hours. After incubation the content of each well was transferred to a fresh 1.5 ml microtube and centrifuged at 8000-9000×g for 15 minutes. The supernatant of each sample was transferred individually to two 1.5 ml microtubes and kept at −20° C. until use.
# Interleukin-6 was quantified by a specific ELISA (Human IL-6 ELISA Set, BD Biosciences, Cat. No. 555220) employing an anti-human IL-6 antibody as capture antibody, a biotinylated anti-human IL-6 detection antibody, avidin-horseradish peroxidase conjugate as enzyme reagent, and recombinant IL-6 as standard. Absorbance measurement was performed at 450 nm using the Packard FusionReader.
# The results for each plate were stored and evaluated using the FusionDataAnalysis software. […]
# [1] = test system: U46619-contracted septal coronary arteries; assay: Acetylcholine-induced vasorelaxation of septal coronary arteries from STZ-induced diabetic rats; format: in vivo, rat; settings: TIP peptide 125 μg i.p. every three days for four weeks, vs STZ group, n=3
# Text: and tested for their ability to relax in response to progressive concentrations of acetylcholine. The vasorelaxant responses are expressed as percent of maximal control relaxation.
# perfused rat hearts = assay: Cardiac permeability by BSA-FITC perfusion (Langendorff method) of hearts from STZ-treated rats; format: in vivo; settings: 125 μg/rat over 4 wks i.p.
# Description: Following the same protocol as above, hearts from Ctrl, STZ-treated and TIP/STZ treated rats were isolated after 4 wks. The hearts were perfused using the Langendorff method with BSA-FITC (Di Napoli et al., Nitric Oxide 16 (2007), 228-236). Hearts were subsequently frozen in liquid nitrogen and slices were cut with a microtome. Subsequently, fluorescence was assessed in 4 slices of each heart and cumulative fluorescence responses were recorded.
# STZ-treated rats = settings: rat, in vivo
# Description: In this experiment, Male Sprague-Dawley rats (240 to 265 g, n=3) were divided into three groups: 1. Control rats receiving injections of vehicle alone, 2. rats rendered diabetic with STZ (50 mg/kg, intraperitoneally) and 3. […] Rats with blood levels >350 mg/dL were considered to be diabetic.
compound,measurement,setting,value
"C[C@@H]1NC(=O)CNC(=O)[C@H](CCC(=O)O)NC(=O)[C@@H]2CCCN2C(=O)[C@H]([C@@H](C)O)NC(=O)[C@H](CCC(=O)O)NC(=O)[C@H](CCCNC(=N)N)NC(=O)[C@H](CCC(N)=O)NC(=O)CNC(=O)[C@@H](N)CSSC[C@@H](C(=O)O)NC(=O)[C@H](Cc2ccc(O)cc2)NC(=O)[C@H](Cc2c[nH]c3ccccc23)NC(=O)[C@@H]2CCCN2C(=O)[C@H](CCCCN)NC(=O)[C@H](C)NC(=O)[C@H](CCC(=O)O)NC1=O [AP301, (NH2) Cys-Gly-Gln-Arg-Glu-Thr-Pro-Glu-Gly-Ala-Glu-Ala-Lys-Pro-Trp-Tyr-Cys (COOH)]",Concentration of IL-6,fresh human whole blood; concentration 1 ng/ml,less than 0.5 pg/ml
same,Concentration of IL-6,fresh human whole blood; concentration 3 ng/ml,less than 0.5 pg/ml
same,Concentration of IL-6,fresh human whole blood; concentration 1 (unit uncertain),less than 0.5 pg/ml
same,Concentration of IL-6,fresh human whole blood; concentration 10 (unit uncertain),less than 0.5 pg/ml
same,IL-6 secretion (pro-inflammatory response),"fresh human whole blood; whole blood cultures from five healthy donors, all concentrations tested (10 μg/ml to 1 ng/ml)",did not induce any detectable level of IL-6 secretion; also recorded: did not induce a pro-inflammatory response
same,acetylcholine-induced vasorelaxation response in septal coronary arteries,[1],significantly improved the vasorelaxation response
same,cardiac permeability (Albumin-FITC incorporation),perfused rat hearts,significantly inhibits cardiac hyperpermeability
same,cardiac permeability (Albumin-FITC incorporation),perfused rat hearts; listed as TIP peptide,inhibits STZ-associated cardiac permeability
same,weight,STZ-treated rats,increased weight loss
